Tests used:
MV4-11 cells = assay: CALR, CD47 and SIRPα surface expression (MFI, flow cytometry) in MV4-11 cells after DHODHi treatment with or without uridine; format: cell-based; details: 72 h; BRQ 500 nM, Cpd4 10, 25, 50, 100 nM, BAY 1 nM; reversible with 0.1 mM uridine
Procedure: MV4-11 cells were treated with vehicle (DMSO), brequinar (BRQ, 500 nM), Cpd4 (10, 25, 50, 100 nM), or BAY2402234 (BAY, 1 nM) for 72 hours, in the presence or absence of exogenous uridine (0.1 mM). After the 72-hour treatment, cells were collected, washed and stained for flow cytometric analysis and the mean fluorescent intensity (MFI) measured to determine calreticulin (CALR) and CD47 surface expression.
(§1) FIGS. 8A-8B show representative data for the Mean Fluorescent Intensity (MFI) of SIRPα (CD172a) surface expression following the indicated treatments. […] Briefly, cells were treated for 72 hours to determine SIRPα level using flow cytometry and determine if SIRPα level was different in the P53 mutant clones. As shown, SIRPα level appears modestly higher in the heterozygous P53 MV4-11 clone. […] Briefly, MV4-11 cells were treated for 72 hours with DHODHi with or without uridine to measure SIRPα surface expression post DHODHi therapy.

MOLM-13 cells = assay: Disseminated MOLM-13 xenograft, treatment from 4 days after implantation (Example 5); format: in vivo; set-up: ILS / Median survival: unit not given here; details: for Statistical Significance: vs vehicle; for Median survival Ratio: Column A (vehicle) to Column B; for Median survival: treated group; for Hazard Ratio (Logrank) Ratio / Hazard Ratio (Mantel-Haenszel) Ratio: vehicle (Group 1) vs treated
Procedure: Briefly, ten week old male NCG mice (NOD-Prkdcem26Cd52//2rgem26Cd22/NjuCrl, Charles River) were injected intravenously (i.v.) in the tail vein with 1×10^5 MOLM-13 cells resuspended in cold phosphate buffer saline (PBS), using 0.2 mL of a suspension at 5×10^5 MOLM-13 cells/mL. Four days after tumor cell implantation, which was designated as Day 1 of the study, mice were randomized into eight treatment groups (n=10) based on body weights. Note that for the sample administration above, vehicle was a 50/50 mix of 40% HPBCD in sterile water and 10% Ethanol/90% PEG400. […] The remaining mice were left on study to monitor for an additional 25 days to determine if any residual disease would relapse following drug cessation. Thus, at day 106, all remaining mice were euthanized and spleens and bone marrow were harvested and analyzed by flow cytometry to investigate whether residual disease was present.

[1] = test system: MV4-11 P53 wild type, heterozygous and homozygous clones; assay: Sensitivity and CD47/SIRPα surface expression of MV4-11 P53 clones treated with DHODHi; format: cell-based; details: 72 h; reversed with 0.1 mM exogenous uridine
Procedure: MV4-11 cell line was reported to harbor a R248W TP53 hotspot mutation (Yan B, Chen Q, Xu J, Li W, Xu B, Qiu Y. Leukemia 2020 doi 10.1038/s41375-020-0710-7.). Accordingly, the MV4-11 cell line was single cell sorted to separate the P53 mutant sub-clone and generated three clones; P53 wild type, P53 heterozygous, and P53 homozygous to interrogate the potential role of P53 mutation on DHODHi activity and if DHODHi affected CD47 expression. Therefore, MV4-11 clones were treated with DHODHi, brequinar (BRQ) or Cpd4 for 72 hours. Cells were then collected, washed with PBS then stained for flow cytometry analysis of CD47 surface expression and the overall sensitivity of the MV4-11 clones to DHODHi.
as §1

[2] = Separate cell-based assays (IC50 of Cpd4)
MOLM-13 tumor cells = assay: Disseminated MOLM-13 aggressive xenograft, treatment from 10 days after implantation (Example 6); format: in vivo; details: for BW Nadir (Lowest Mean Body Weight for Group): % of initial mean BW
Procedure: Briefly, NCG mice were i.v. injected in the tail vein with 1×10^5 MOLM-13 tumor cells suspended in PBS in a cell injection volume of 0.2 mL/mouse. Animals were randomized into treatment groups based on Day 1 body weight. The study start date (Day 1) was at 10 days post implant (tumor injection). In the study, males were separated into single housing if excessive fighting or aggressive behavior was observed. The animals were 8 to 12 weeks old at study start. […] Any group with a mean body weight loss of >20% or >10% mortality had dosing terminated, but not euthanized, and allowed to recover. Within a group, any individual animal with a >20% weight loss endpoint were euthanized. […] At the endpoint, the animals were euthanized per standard procedure. Clinical signs associated with progression of tumor include impairment of hind limb function, ocular proptosis, and weight loss. Full hindlimb paralysis, ocular proptosis, or moribundity were considered sufficient for euthanasia.

U266B1 = assay: CD47 surface expression and viability by flow cytometry in multiple myeloma cell line U266B1; format: cell-based; details: three concentrations of Cpd4
Procedure: (§2) Briefly, tumor cells were typically grown at 37° C. in a humidified atmosphere with 5% C02 in RPMI 1640 medium, supplemented with 10% (v/v) fetal calf serum and 50 μg/ml gentamicin for up to 20 passages, and were typically passaged once or twice weekly. Cells were harvested by centrifugation, and the percentage of viable cells were determined using a CASY Model TT cell counter (OMNI Life Science). Cells were harvested from exponential phase cultures, counted and plated in […] plates at a cell density depending on the cell line's growth rate in RPMI 1640 medium supplemented with 10% (v/v) fetal calf serum and 50 µg/ml gentamicin (140 μl/well). At the time of plating, a t=0 h timepoint was taken as a baseline measurement (dotted horizontal lines in the figures). Cultures were incubated at 37° C. and 5% C02 in a humidified atmosphere. At 24 h after cell seeding, DMSO (vehicle control) or the test compound at three different concentrations was added, and left on the cells for another 48 h, 96 h, or 144 h. […] After standard washing techniques, the cells were analyzed on an Attune NxT Acoustic Focusing Cytometer (Thermo Fisher Scientific, Waltham, MA). Antibody Binding Capacity (ABC) was determined using Quantum™ Simply Cellular® quantification beads (Bio-Rad Laboratories, Hercules, CA).

H929 = assay: CD47 surface expression by flow cytometry in multiple myeloma cell line H929; format: cell-based; details: from 48 h after the start of treatment
Procedure: as §2

MM1.S = assay: CD47 surface expression by flow cytometry in multiple myeloma cell line MM1.S; format: cell-based; details: from 48 h after the start of treatment
Procedure: as §2

[3] = test system: a variety of unrelated viruses; details: in vitro; Harvey et al. (2009); read-out: EC50, inhibition of virus replication; cited from earlier work

Structure (SMILES): CCn1c(CO)nn(-c2cc(O[C@@H](C)C(F)(F)F)c(C(=O)Nc3c(F)cccc3Cl)cc2F)c1=O [BAY2402234, N-(2-chloro-6-fluorophenyl)-4-(4-ethyl-3-(hydroxymethyl)-5-oxo-4,5-dihydro-1H-1,2,4-triazol-1-yl)-5-fluoro-2-((1,1,1-trifluoropropan-2-yl)oxy)benzamide, reference compound]
- CALR surface expression (MFI) (MV4-11 cells): upregulated
- CD47 surface expression (MFI) (MV4-11 cells): upregulated
- Deaths NTRa (MOLM-13 cells; 4 mg/kg po qd): 1
- ILS (MOLM-13 cells; 4 mg/kg po qd): 144
- Mean BW Nadir (MOLM-13 cells; 4 mg/kg po qd): −5.7%
- Median TTE (MOLM-13 cells; 4 mg/kg po qd): 44.0
- n Remaining Day 106 (MOLM-13 cells; 4 mg/kg po qd): 0
- Statistical Significance (MOLM-13 cells; 4 mg/kg po qd): *** (*** = P ≤ 0.001)
- Median survival Ratio (MOLM-13 cells; 4 mg/kg po qd): 0.4091
- Median survival (MOLM-13 cells; 4 mg/kg po qd): 44
- Hazard Ratio (Logrank) Ratio (MOLM-13 cells; 4 mg/kg po qd): 4.397
- Hazard Ratio (Mantel-Haenszel) Ratio (MOLM-13 cells; 4 mg/kg po qd): 21.48

Structure (SMILES): Cc1c(-c2ccc(-c3ccccc3F)cc2)nc2ccc(F)cc2c1C(=O)O [BRQ, 6-fluoro-2-(2′-fluoro-1,1-biphenyl-4-yl)-3-methyl-4-quinolinecarboxylic acid, reference compound]
- CALR surface expression (MFI) (MV4-11 cells): upregulated
- CD47 surface expression (MFI) (MV4-11 cells): upregulated
- CD47 surface expression [1]: upregulate surface CD47 expression regardless of the P53 mutation status
- SIRPα surface expression [1]: upregulate surface SIRPα expression regardless of the P53 mutation status

Structure (SMILES): CCCCOc1cccc(-c2ccc(-c3cc(C(=O)O)c4cc(F)ccc4n3)cc2)c1 [Cpd4, 2-(3′-butoxy-[1,1′-biphenyl]-4-yl)-6-fluoroquinoline-4-carboxylic acid]
- IC50 [2]: 11 nM
- ILS (Increased Life Span) (MOLM-13 tumor cells; Cpd4 4.12 mg/kg po qd to end): 174.1
- Median TTE (Median Time to Endpoint) (MOLM-13 tumor cells; Cpd4 4.12 mg/kg po qd to end): 37 days
- NTR (No. of Non-treatment-related Deaths, due to Accident/Unknown Etiology) (MOLM-13 tumor cells; Cpd4 4.12 mg/kg po qd to end): 0
- NTRm (No. of Non-treatment-related Deaths, due to Metastasis) (MOLM-13 tumor cells; Cpd4 4.12 mg/kg po qd to end): 0
- TR (No. of Treatment-related Deaths) (MOLM-13 tumor cells; Cpd4 4.12 mg/kg po qd to end): 0
- s (Number of Remaining Animals) (MOLM-13 tumor cells; Cpd4 4.12 mg/kg po qd to end): 0
- BW Nadir (Lowest Mean Body Weight for Group) (MOLM-13 tumor cells; Cpd4 4.12 mg/kg po qd to end): −9.0% (35)
- ILS (Increased Life Span) (MOLM-13 tumor cells; Cpd4 10.31 mg/kg po qd to end): 225.9
- Median TTE (Median Time to Endpoint) (MOLM-13 tumor cells; Cpd4 10.31 mg/kg po qd to end): 44 days
- NTR (No. of Non-treatment-related Deaths, due to Accident/Unknown Etiology) (MOLM-13 tumor cells; Cpd4 10.31 mg/kg po qd to end): 0
- NTRm (No. of Non-treatment-related Deaths, due to Metastasis) (MOLM-13 tumor cells; Cpd4 10.31 mg/kg po qd to end): 0
- TR (No. of Treatment-related Deaths) (MOLM-13 tumor cells; Cpd4 10.31 mg/kg po qd to end): 0
- s (Number of Remaining Animals) (MOLM-13 tumor cells; Cpd4 10.31 mg/kg po qd to end): 5
- BW Nadir (Lowest Mean Body Weight for Group) (MOLM-13 tumor cells; Cpd4 10.31 mg/kg po qd to end): −5.2% (42)
- CALR surface expression (MFI) (MV4-11 cells): upregulated
- CD47 surface expression (MFI) (MV4-11 cells): upregulated
- CD47 surface expression [1]: upregulate surface CD47 expression regardless of the P53 mutation status
- SIRPα surface expression [1]: upregulate surface SIRPα expression regardless of the P53 mutation status
- overall cell viability (U266B1; 48 h, 96 h, 144 h): dose-dependent correlation in Cpd4 concentration and overall cell viability
- surface expression of CD47 (median fluorescence intensity, antibody binding capacity) (U266B1; 96 h and 144 h): increased in a dose-dependent manner
- ILS (MOLM-13 cells; 4 mg/kg po qd): 125
- Mean BW Nadir (MOLM-13 cells; 4 mg/kg po qd): −4.1%
- Median TTE (MOLM-13 cells; 4 mg/kg po qd): 40.5
- n Remaining Day 106 (MOLM-13 cells; 4 mg/kg po qd): 0
- Statistical Significance (MOLM-13 cells; 4 mg/kg po qd): *** (*** = P ≤ 0.001)
- Deaths TR (MOLM-13 cells; 10 mg/kg po qd): 0
- ILS (MOLM-13 cells; 10 mg/kg po qd): 183
- Mean BW Nadir (MOLM-13 cells; 10 mg/kg po qd): −3.5%
- Median TTE (MOLM-13 cells; 10 mg/kg po qd): 51.0
- n Remaining Day 106 (MOLM-13 cells; 10 mg/kg po qd): 0
- Statistical Significance (MOLM-13 cells; 10 mg/kg po qd): *** (*** = P ≤ 0.001)
- Median survival Ratio (MOLM-13 cells; 4 mg/kg po qd): 0.4444
- Median survival Ratio (MOLM-13 cells; 10 mg/kg po qd): 0.3529
- Median survival (MOLM-13 cells; 4 mg/kg po qd): 40.5
- Median survival (MOLM-13 cells; 10 mg/kg po qd): 51
- Hazard Ratio (Logrank) Ratio (MOLM-13 cells; 4 mg/kg po qd): 4.553
- Hazard Ratio (Mantel-Haenszel) Ratio (MOLM-13 cells; 4 mg/kg po qd): 25.21
- Hazard Ratio (Logrank) Ratio (MOLM-13 cells; 10 mg/kg po qd): 4.553
- Hazard Ratio (Mantel-Haenszel) Ratio (MOLM-13 cells; 10 mg/kg po qd): 25.21
- CD47 surface expression (H929): increase in CD47 surface expression in these cell lines apparent starting at 48 h
- CD47 surface expression (MM1.S): increase in CD47 surface expression in these cell lines apparent starting at 48 h

Structure (SMILES): O=C(N[C@@H]1CCCc2c1[nH]c1ccc(Cl)cc21)c1ccccn1 [GSK983]
- EC50 [3]: 5 to 20 nM
